{"source": "patent US20040013733A1", "about": "“Preparation of a biodegradable thermal-sensitive gel system” (Industrial Technology Research Institute, priority 2001, published 2004)", "test_system": "blood vessel growth (angiogenesis)", "assay": "The angiogenesis animal model: gel of Example 4 mixed with drug injected to mice, blood vessel growth observed", "format": "in vivo", "details": "drug in gel of Example 4, 0.5 mL gel injected, two months old mice, N=2, after 15 days, gel and adjacent tissue", "description": "The gel solution prepared according the process of Example 4 was mixed with various drugs listed in tablet at room temperature and is injected (0.5 mL gel each) to two months old mice, N=2. Sacrifice the mice after 15 days and take out the gel and its adjacent tissue to observe the blood vessel growth. The results are listed in table 1 and shown in the color pictures supplemented (please refer to attachments).\nThe tissue taken out was observed by electron microscope and the results were shown as FIG. 2.\nIn other words, the endothecium cell and blood vessels of the host can develop in the beehive structure of the gel. The results tell us that co-administrate the gel of the present invention and angiogenesis drug did benefit angiogenesis."}
{"substance": "bFGF: angiogenesis-inducing growth factor, 250 ng/ml, mixed with gel of Example 4", "values": [{"measurement": "Blood vessel growth state", "result": "Angiogenesis is present"}]}
